According to paper PMC3758303 (PLoS ONE, 2013):

How the values were obtained:
[1] = Viability of RSc-JRN/35B cells (WST-1, trypan blue cell counting); type: cell-based, human; details: human, read-out: viable cells by cell counting after trypan blue dye treatment
Method: (§1) The WST-1 cell proliferation assay was performed as described previously. Briefly, The cells were plated onto 96-well plates (1×10^3 cells per well) in triplicate and then treated with each reagent at several concentrations for 72 hrs. After treatment, the cells were subjected to the WST-1 cell proliferation assay (Takara Bio, Otsu, Japan) according to the manufacturer’s protocol. This assay is based on the enzymatic cleavage of the tetrazolium salt WST-1 to formazan by cellular mitochondrial dehydrogenases present in viable cells. Therefore, there are […] the value of the WST-1 assay becomes zero. The experiments were performed at least in triplicate. From the assay results, the 50% cytotoxic concentration (CC50) of each reagent was determined.
(§2) We next examined whether N-89 and N-251 worked in an HCV production system using HCV-JFH-1 strain (genotype 2a). […] To clarify whether anti-HCV activity depends on the difference of genotype or assay model, we evaluated the activities of N-89 and N-251 using RSc-JRN/35B [Ikeda et al., submitted] cells harboring a subgenomic HCV-JFH-1 replicon as an additional assay.

RSc-JRN/35B cells = test: as above; type: cell-based, human; details: 10 µM
Method: as §1, §2

malaria parasites = tested on: malaria parasites; design: method as in PMID 21501696, PMID 21924377; details: compared with N-89; cited from earlier work
HCV-RNA in OR6 cells = test: Curing of OR6 cells by N-89 treatment (G418 selection, Western blot); type: cell-based, hepatitis C virus; details: 8 µM, 3 weeks, addition at 4-day intervals, absence of G418
Method: (§3) To date, IFN-α alone or IFN-γ alone has generally been used to prepare cured cells from the cells harboring HCV-RNA [36]. Since we observed strong anti-HCV activity (>99% suppression) at 8 µM of N-89 in OR6 cells or 1 µM of N-89 in ORL8 cells without a decrease in cell viability (Fig. 1B), we expected that these cells might be cured only by treatment with N-89. Accordingly, OR6 and ORL8 cells were treated with 8 µM and 1 µM of N-89, respectively, in the absence of G418. The treatment was continued for 3 weeks with the addition of N-89 at 4-day intervals.
(§4) Figure 3 OR6 and ORL8 cells were cured by treatment with only N-89. The treated cells were divided into two plates with or without G418, and then cultured for 2 weeks. The left panels show the cells stained with Coomassie brilliant blue. The right panels show the results of Western blot analysis of the treated and non-treated cells for HCV proteins. Western blot analysis was performed as described in Fig. 1B.

HCV-RNA in ORL8 cells = test: Curing of ORL8 cells by N-89 treatment (G418 selection, Western blot); type: cell-based, hepatitis C virus; details: 1 µM, 3 weeks, addition at 4-day intervals, absence of G418
Method: as §3, §4

[2] = tested on: HCV-RNA replication in ORL8 cells; test: Comparative time course RL assay in ORL8 cells; type: cell-based, hepatitis C virus
Method: We next performed a time course assay (2 to 72 hrs after treatment) in the case of ORL8 cells treated with N-89 (0.1 µM or 1 µM) or IFN-α (1 IU/ml; corresponding to approximately EC80). ORL8 cells treated with IFN-α (1 IU/ml) and N-89 (1 µM) had almost the same anti-HCV kinetics over the first […] after treatment (upper panel of Fig. 4); however, within the first 12 hrs after treatment N-89-treated ORL8 cells had more rapid anti-HCV kinetics than did the IFN-α-treated cells (lower panel of Fig. 4).
Figure 4 The anti-HCV action of N-89 was faster than that of IFN-α. The ORL8 cells were treated with N-89 or IFN-α, and then RL assays were performed at 2 to 72 hrs after the treatment. The relative value (%) calculated at each time point, when the luciferase activity of non-treated cells at 24 hrs was assigned as 100%, is shown. Data are expressed as the means±standard deviation of triplicate assays. […] To evaluate this possibility, we examined the effect of VE on N-89 at the EC90 level in the ORL8 assay. […] Similar results were obtained by using N-251 (Fig. 5C and D). […] However, an antimalarial drug, artemisinin, was hardly influenced by co-treatment with VE (Fig. 5E). The value (1.9) of artemisinin was almost the same as that (3.5 or 2.5) of IFN-α or the control, respectively (Fig. 5F).

rats = tested on: rats; design: method as in PMID 11428929, PMID 17273878, PMID 12723958; details: cited from earlier work
Plasmodium falciparum = tested on: Plasmodium falciparum; design: method as in PMID 11428929, PMID 17273878, PMID 12723958; details: cited from earlier work

| SMILES | viability at 10 µM [1] [%] | relative value of WST-1 (RSc-JRN/35B cells) | potency against malaria parasites (malaria parasites) | curing of HCV-RNA-replicating cells (HCV-RNA in OR6 cells) | curing of HCV-RNA-replicating cells (HCV-RNA in ORL8 cells) | time after treatment at which RL activity was significantly decreased ([2]; 0.1 µM) [h] | time after treatment at which RL activity was significantly decreased ([2]; 1 µM) [h] | 50% lethal dose (rats) [mg/kg] | antimalarial activity in vitro (Plasmodium falciparum) |
| --- | --- | --- | --- | --- | --- | --- | --- | --- | --- |
| OCCCCCCC1COOC2(CCCCCCCCCCC2)OOC1 [N-251, 6-(1,2,6,7-tetraoxaspiro[7.11]nonadec-4-yl)hexan-1-ol] | ~30 | almost became zero | as potent as N-89 | – | – | – | – | – | – |
| C1CCCCCC2(CCCCC1)OOCCCOO2 [N-89, 1,2,6,7-Tetraoxaspiro[7.11]nonadecane] | – | – | – | cured | cured | 9 | 6 | > 2000 | potent antimalarial activity |
